In US8415299B2, “Methods for improved avian performance” (priority 2004, dated 2013):
Read-outs that look alike come from different tables or passages of the source. Marks after values point to notes of the source that are not given here.

What was measured:
[1] = tested on: 60-week old Hy-Line W-36 White Leghorn hens; details: for Feed Intake: day 22 to day 28
Description: Experiment 1. […] The photoperiod was 17 hours of light per day (0330 hours to 2030 hours).

[2] = tested on: 96-week old Hy-Line W-36 White Leghorn hens
Excerpt: Experiment 3. […] The photoperiod serves as the primary environmental signal that regulates reproductive function in many avian species. Increasing the photoperiod promotes maturation of the gonads and reproductive tract, whereas reducing the photoperiod causes the gonads and reproductive tract to regress and molting to occur.

[3] = tested on: Bovans caged laying hens; test: Experiment 6: molting of caged laying hens with dietary L-thyroxine or thyroactive iodinated casein; format: in vivo, chickens; details: for 9 Jun. 2005 (9th d Trt) Body Wt Change: 10 hours of light daily; for 25 May 2005 Initial Body Wt: before 7-day pretest
Excerpt: Experiment 6. Molting of Caged Laying with Dietary L-Thyroxine or Thyroactive Iodinated Casein
In Experiment 6, a conventional feed withdrawal molting procedure was compared with 5 dietary thyroxine treatments. Body weight loss after 9 days was greater, days to 0% egg production (9 days) shorter, ovary plus oviduct weight numerically lighter on day 9 of treatment, but eggs collected on day 4 of treatment had thinner shells, in the feed withdrawal group.

[4] = tested on: turkey breeder hens; test: Experiment 7: molting of turkey breeder hens with dietary L-thyroxine, porcine thyroid powder or thyroactive iodinated casein, 10 days; format: in vivo; details: 10, 20, or 40 mg T4/kg diet
Excerpt: Experiment 7. Molting of Turkey Breeder Hens with Dietary L-Thyroxine, PorcineThyroid Powder, or Thyroactive Iodinated Casein. Turkey breeder hens were molted with various dietary thyroxine treatments at Diamond K Research, […]. (Jun. 20-Jul. 1, 2005).

[5] = tested on: turkey hens; details: cited from earlier work
[6] = 20 mg/kg feed, 8 hr L, Day 30-34
[7] = 20 mg/kg feed, 8 hr L, Days 13-15
[8] = 20 mg/kg feed, 8 hr L, Days 16-22
[9] = 20 mg/kg feed, 17 hr L, Day 30-34
[10] = 20 mg/kg feed, 17 hr L, Days 13-15
[11] = 20 mg/kg feed, 17 hr L, Days 16-22
[12] = 40 mg T4/kg test diet, Chamber 6 (17 hr light)
[13] = 40 mg/kg feed, 8 hr L, Day 30-34
[14] = 40 mg/kg feed, 8 hr L, Days 13-15
[15] = 40 mg/kg feed, 8 hr L, Days 16-22
[16] = 40 mg/kg feed, 17 hr L, Day 30-34
[17] = 40 mg/kg feed, 17 hr L, Days 13-15

SMILES: N[C@@H](Cc1cc(I)c(Oc2cc(I)c(O)c(I)c2)c(I)c1)C(=O)O [L-thyroxine, 3,5,3′,5′-tetraiodothyronine]
- Effect on egg production ([1]; 250 μg T4 per kg body weight i.m. for 12 consecutive days): did not reduce egg production significantly
- Day after start of T4 injection on which molting began in all cages ([1]; 500 μg T4 Group): 11 days
- Time after start of injecting at which egg production was significantly reduced ([1]; 500 μg T4 Group): 4 days
- Day after start of T4 injection on which molting began in all cages ([1]; 1,000 μg T4 Group): 9 days
- Time after start of injecting at which egg production was significantly reduced ([1]; 1,000 μg T4 Group): 4 days
- Mortality ([1]; 1,000 μg T4 Group, 2 of 8 hens, died 9th and 10th day after start of injection): 25%
- Day after start of injection on which molting commenced in all cages ([1]; 2,000 μg T4 Group): 9 days
- Time to rapid and complete cessation of egg production ([1]; 2,000 μg T4 per kg body weight i.m. for 3 consecutive days): ≤ 6 days
- Day after start of injection on which molting commenced in all cages ([1]; 4,000 μg T4 Group): 9 days
- Mortality ([1]; 4000 μg T4 Group, 1 of 4 hens, died 8th day after start of injection): 25%
- Time to rapid and complete cessation of egg production ([1]; 4,000 μg T4 per kg body weight i.m. for 3 consecutive days): ≤ 4 days
- End of Injections Body Weight ([1]; 250 mcg/kg BW i.m. 12 d): 1300 g
- Feed Intake ([1]; 250 mcg/kg BW i.m. 12 d): 58.7 g/hen/day
- Feed Intake ([1]; 500 mcg/kg BW i.m. 8 d): 52.3 g/hen/day
- Feed Intake ([1]; 1,000 mcg/kg BW i.m. 8 d): 31.4 g/hen/day
- Feed Intake ([1]; 2,000 mcg/kg BW i.m. 3 d): 20.2 g/hen/day
- Feed Intake ([1]; 4,000 mcg/kg BW i.m. 3 d): 11.7 g/hen/day
- Molting ([2]; 20 mg T4/kg groups, either chamber): None of the hens in the Control groups or 20 mg T4/kg groups molted in either chamber
- Time within which egg production was significantly reduced ([2]; 20 mg T4/kg, Chamber 6 (17 hr light)): ≤ 8 days
- Hen-day egg production ([2]; 20 mg/kg feed 12 d from day 13, 8 hr L, day 30): 6.3%
- Feed consumption (FC) [2, 6]: 82.5 g/hen/d
- Feed consumption change from days 1-12 (% FCC) [2, 6]: −32.0%
- Feed consumption (FC) ([2]; 20 mg/kg feed, 8 hr L, Days 1-12 (pre-treatment)): 121.3 g/hen/d
- Feed consumption (FC) [2, 7]: 41.8 g/hen/d
- Feed consumption change from days 1-12 (% FCC) [2, 7]: −65.5%
- Feed consumption (FC) [2, 8]: 44.5 g/hen/d
- Feed consumption change from days 1-12 (% FCC) [2, 8]: −63.3%
- Feed consumption (FC) [2, 9]: 135.0 g/hen/d
- Feed consumption change from days 1-12 (% FCC) [2, 9]: 11.1%
- Feed consumption (FC) ([2]; 20 mg/kg feed, 17 hr L, Days 1-12 (pre-treatment)): 121.5 g/hen/d
- Feed consumption (FC) [2, 10]: 58.0 g/hen/d
- Feed consumption change from days 1-12 (% FCC) [2, 10]: −52.3%
- Feed consumption (FC) [2, 11]: 51.8 g/hen/d
- Feed consumption change from days 1-12 (% FCC) [2, 11]: −57.4%
- Hens that molted fully ([2]; 40 mg T4/kg Group, Chamber 5 (8 hr light), 7/12): 58%
- Loss of initial body weight [2, 12]: approximately 18%
- Reduction of feed intake [2, 12]: approximately 65%
- Time within which egg production was significantly reduced ([2]; 40 mg T4/kg, Chamber 6 (17 hr light)): ≤ 6 days
- Hens that molted fully ([2]; 40 mg T4 kg Group, Chamber 6 (17 hr light)): 100%
- Hen-day egg production ([2]; 40 mg/kg feed 12 d from day 13, 17 hr L, day 22): 0.0%
- Hen-day egg production ([2]; 40 mg/kg feed 12 d from day 13, 17 hr L, day 24): 0.0%
- Hen-day egg production ([2]; 40 mg/kg feed 12 d from day 13, 17 hr L, day 26): 0.0%
- Hen-day egg production ([2]; 40 mg/kg feed 12 d from day 13, 17 hr L, day 28): 0.0%
- Hen-day egg production ([2]; 40 mg/kg feed 12 d from day 13, 17 hr L, day 30): 0.0%
- Hen-day egg production ([2]; 40 mg/kg feed 12 d from day 13, 17 hr L, day 32): 0.0%
- Hen-day egg production ([2]; 40 mg/kg feed 12 d from day 13, 17 hr L, day 34): 0.0%
- Feed consumption (FC) [2, 13]: 104.8 g/hen/d
- Feed consumption change from days 1-12 (% FCC) [2, 13]: −9.5%
- Feed consumption (FC) ([2]; 40 mg/kg feed, 8 hr L, Days 1-12 (pre-treatment)): 115.8 g/hen/d
- Feed consumption (FC) [2, 14]: 36.8 g/hen/d
- Feed consumption change from days 1-12 (% FCC) [2, 14]: −68.2%
- Feed consumption (FC) [2, 15]: 35.3 g/hen/d
- Feed consumption change from days 1-12 (% FCC) [2, 15]: −69.5%
- Feed consumption (FC) [2, 16]: 93.3 g/hen/d
- Feed consumption change from days 1-12 (% FCC) [2, 16]: −9.7%
- Feed consumption (FC) ([2]; 40 mg/kg feed, 17 hr L, Days 1-12 (pre-treatment)): 103.3 g/hen/d
- Feed consumption (FC) [2, 17]: 42.0 g/hen/d
- Feed consumption change from days 1-12 (% FCC) [2, 17]: −59.3%
- Feed consumption change from days 1-12 (% FCC) ([2]; 40 mg/kg feed, 17 hr L, Days 16-22): −63.7%
- Mortality ([2]; 20, 40 mg T4/kg feed 12 days): No mortality occurred in any of the Groups
- Time within which egg production was significantly reduced ([2]; 20 and 40 mg T4/kg, Chamber 5 (8 hr light)): ≤ 4 days
- 9 Jun. 2005 (9th d Trt) Body Wt Change ([3]; 20 mg T4/kg diet): −0.50^b lb
- 25 May 2005 Initial Body Wt ([3]; 20 mg T4/kg diet): 3.49 lb
- Days to 0% egg production ([3]; 40 mg T4/kg diet): 11 days
- Weight loss ([3]; 40 mg T4/kg diet): −0.54 lb
- 9 Jun. 2005 (9th d Trt) Body Wt Change ([3]; 40 mg T4/kg diet): −0.60^b lb
- 25 May 2005 Initial Body Wt ([3]; 40 mg T4/kg diet): 3.57 lb
- Effectiveness at regressing reproductive tracts [4]: not as effective as porcine thyroid powder
- Time out of egg production after treatment ([5]; 2 mg/hen/day i.m. (Lien and Siopes 1993)): 4 weeks
- Egg laying ([5]; 3 mcg/mL water (600 to 900 mcg/bird/day), 20 to 25 week old turkey females (Bilezikian et al. 1980)): rarely lay eggs
